# Earlier results in US20250381170A1, “Low Concentration Delivery of an Ergoline Derivative for Treatment of a Headache” (Relevale, Inc., priority 2021, published 2025).
# Legend:
# [1] = test system: noradrenaline α, receptors
# [2] = target: 5-HT1Dβ receptors (Homo sapiens, UniProt P28222)
# [3] = target: dopamine D2L receptors (Homo sapiens, UniProt P14416)
# [4] = target: dopamine D3 receptors (Homo sapiens, UniProt P35462)
# [5] = target: T1, serotonin 5-HT2C receptors (Homo sapiens, UniProt P28335)
# T1 sequence (P28335 33-458): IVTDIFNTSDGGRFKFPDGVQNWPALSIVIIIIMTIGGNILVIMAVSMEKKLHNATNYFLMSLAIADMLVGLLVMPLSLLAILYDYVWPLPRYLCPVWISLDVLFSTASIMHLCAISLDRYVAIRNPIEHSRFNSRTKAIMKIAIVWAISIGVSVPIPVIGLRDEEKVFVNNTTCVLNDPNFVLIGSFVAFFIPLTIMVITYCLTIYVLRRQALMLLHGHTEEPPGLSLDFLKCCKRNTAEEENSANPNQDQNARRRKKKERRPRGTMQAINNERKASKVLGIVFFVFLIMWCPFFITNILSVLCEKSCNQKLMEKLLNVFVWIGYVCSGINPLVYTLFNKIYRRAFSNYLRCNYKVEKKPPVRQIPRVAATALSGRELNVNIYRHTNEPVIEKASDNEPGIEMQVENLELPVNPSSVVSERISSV
# [6] = target: 5-HT1Dα receptors (Homo sapiens, UniProt P28221)
# [7] = oral dosage forms
# [8] = target: T2, noradrenaline α2A receptors (Homo sapiens, UniProt P08913)
# T2 sequence (P08913 1-465): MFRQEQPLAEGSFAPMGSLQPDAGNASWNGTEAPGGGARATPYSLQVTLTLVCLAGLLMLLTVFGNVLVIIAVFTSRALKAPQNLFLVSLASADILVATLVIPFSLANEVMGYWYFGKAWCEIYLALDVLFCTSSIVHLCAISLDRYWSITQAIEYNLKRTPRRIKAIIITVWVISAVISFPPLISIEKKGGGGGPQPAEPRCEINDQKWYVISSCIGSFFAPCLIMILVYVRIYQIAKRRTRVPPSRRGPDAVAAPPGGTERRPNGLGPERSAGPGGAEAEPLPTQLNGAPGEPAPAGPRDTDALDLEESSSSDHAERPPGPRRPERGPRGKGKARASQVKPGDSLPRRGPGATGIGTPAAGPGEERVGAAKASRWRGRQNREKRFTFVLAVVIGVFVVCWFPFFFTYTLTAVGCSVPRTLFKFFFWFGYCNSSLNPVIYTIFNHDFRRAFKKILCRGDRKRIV
# [9] = target: T3, serotonin 5-HT1A receptors (Homo sapiens, UniProt P08908)
# T3 sequence (P08908 1-422): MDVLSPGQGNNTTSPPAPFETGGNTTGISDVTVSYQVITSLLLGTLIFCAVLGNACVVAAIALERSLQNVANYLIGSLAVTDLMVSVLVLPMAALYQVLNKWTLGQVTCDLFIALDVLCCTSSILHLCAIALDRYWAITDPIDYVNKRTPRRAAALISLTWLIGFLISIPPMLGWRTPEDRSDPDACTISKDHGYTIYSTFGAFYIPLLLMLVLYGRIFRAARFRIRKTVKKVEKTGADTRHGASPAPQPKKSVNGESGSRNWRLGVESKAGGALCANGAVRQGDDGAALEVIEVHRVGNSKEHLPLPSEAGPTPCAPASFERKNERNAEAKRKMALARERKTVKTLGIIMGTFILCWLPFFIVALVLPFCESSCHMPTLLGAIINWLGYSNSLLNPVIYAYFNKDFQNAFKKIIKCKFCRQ
# [10] = within 24 hours after treatment; sumatriptan-treated patients
# Sequence of dopamine D3 receptors (P35462 whole entry): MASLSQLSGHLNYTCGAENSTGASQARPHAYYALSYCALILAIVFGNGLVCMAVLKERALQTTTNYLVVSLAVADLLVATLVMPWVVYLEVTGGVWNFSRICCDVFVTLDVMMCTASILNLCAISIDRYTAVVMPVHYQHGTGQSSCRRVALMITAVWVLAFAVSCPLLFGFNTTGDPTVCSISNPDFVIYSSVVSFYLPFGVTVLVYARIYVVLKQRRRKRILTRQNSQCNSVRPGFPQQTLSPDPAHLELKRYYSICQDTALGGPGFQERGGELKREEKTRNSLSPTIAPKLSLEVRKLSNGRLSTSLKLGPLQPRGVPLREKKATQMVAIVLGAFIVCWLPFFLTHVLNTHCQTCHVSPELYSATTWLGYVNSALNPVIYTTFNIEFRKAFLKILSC
# Sequence of dopamine D2L receptors (P14416 whole entry): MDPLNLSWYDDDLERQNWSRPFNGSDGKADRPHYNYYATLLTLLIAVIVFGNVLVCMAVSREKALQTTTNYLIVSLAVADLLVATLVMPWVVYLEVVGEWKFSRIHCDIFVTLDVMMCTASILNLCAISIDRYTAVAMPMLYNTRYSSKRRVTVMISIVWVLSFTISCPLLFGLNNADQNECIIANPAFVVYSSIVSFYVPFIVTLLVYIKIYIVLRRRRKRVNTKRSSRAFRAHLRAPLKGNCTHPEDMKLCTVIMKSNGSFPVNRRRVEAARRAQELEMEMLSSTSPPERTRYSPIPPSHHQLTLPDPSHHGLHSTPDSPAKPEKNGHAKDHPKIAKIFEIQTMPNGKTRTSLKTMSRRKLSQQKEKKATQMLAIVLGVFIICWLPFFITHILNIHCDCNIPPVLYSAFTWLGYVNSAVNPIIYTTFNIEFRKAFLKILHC
# Sequence of 5-HT1Dα receptors (P28221 whole entry): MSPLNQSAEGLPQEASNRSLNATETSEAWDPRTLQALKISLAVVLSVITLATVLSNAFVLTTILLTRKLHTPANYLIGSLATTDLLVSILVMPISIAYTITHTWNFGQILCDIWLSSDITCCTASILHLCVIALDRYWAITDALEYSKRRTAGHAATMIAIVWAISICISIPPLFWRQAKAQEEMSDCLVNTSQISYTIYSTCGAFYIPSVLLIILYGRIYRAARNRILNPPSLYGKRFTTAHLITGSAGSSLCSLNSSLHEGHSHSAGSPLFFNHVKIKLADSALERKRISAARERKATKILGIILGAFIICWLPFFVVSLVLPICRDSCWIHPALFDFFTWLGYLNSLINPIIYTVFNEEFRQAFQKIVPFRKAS
# Sequence of 5-HT1Dβ receptors (P28222 whole entry): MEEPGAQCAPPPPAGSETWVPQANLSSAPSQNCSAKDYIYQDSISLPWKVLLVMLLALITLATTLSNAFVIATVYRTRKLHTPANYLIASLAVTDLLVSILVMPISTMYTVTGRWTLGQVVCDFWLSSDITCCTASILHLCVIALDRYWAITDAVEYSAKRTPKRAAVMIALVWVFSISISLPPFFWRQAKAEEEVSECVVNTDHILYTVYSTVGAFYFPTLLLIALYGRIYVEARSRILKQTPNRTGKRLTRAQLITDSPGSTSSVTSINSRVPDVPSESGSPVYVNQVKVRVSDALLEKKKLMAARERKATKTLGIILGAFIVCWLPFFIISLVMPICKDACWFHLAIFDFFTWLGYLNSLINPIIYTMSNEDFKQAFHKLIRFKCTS
structure (smiles),measurement,setting,value
"CN1C[C@H](C(=O)N[C@]2(C)O[C@@]3(O)[C@@H]4CCCN4C(=O)[C@H](Cc4ccccc4)N3C2=O)C[C@@H]2c3cccc4[nH]cc(c34)C[C@H]21 [DHE, Dihydroergotamine]",binding affinity,[1],high affinity
same,binding affinity,[2],high affinity
same,binding affinity,[3],high affinity
same,binding affinity,[4],high affinity
same,binding affinity,[5],high affinity
same,binding affinity,[6],high affinity
same,absorption through the gut,[7],poorly absorbed
same,binding affinity,[8],high affinity
same,binding affinity,[9],high affinity
CNS(=O)(=O)Cc1ccc2[nH]cc(CCN(C)C)c2c1 [sumatriptan],patients with headache reoccurrence,[10],45%
